Where two headings read alike, the source gives them in different places.
Columns and labels:
[1] = system: Tryptophan hydroxylase (TH); details: cited from earlier work; for effect of buffer on TH stability: tested at same pH and salt concentration; for effect on TH melting temperature: buffer of 20 mM HEPES/NaOH and 100 mM (NH4)2SO4 (pH 7.0)
[2] = target: T1, Dwarf27 protein (Oryza sativa subsp. japonica, UniProt C7AU21); test: Dwarf27 protein stability screen in MES-BTP buffer mixture (melting point temperature); assay type: physicochemical; details: for concentration for customized buffer system for Dwarf27: MES-BTP, Spyro Orange; for effect on protein Tm as compared to the control Tm: Dwarf27 (D27), concentration screen, FIG. 16
T1 sequence (C7AU21 41-278): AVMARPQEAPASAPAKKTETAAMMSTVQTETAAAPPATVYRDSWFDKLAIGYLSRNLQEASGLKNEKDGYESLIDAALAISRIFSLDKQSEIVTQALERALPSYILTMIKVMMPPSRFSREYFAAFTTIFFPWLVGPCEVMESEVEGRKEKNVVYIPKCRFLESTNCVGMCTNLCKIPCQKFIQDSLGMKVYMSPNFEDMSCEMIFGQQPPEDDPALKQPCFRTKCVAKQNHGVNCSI
Description: Many methods have been used to describe protein stability. A primary method of early literature was the urea degradation study. As a point of comparative reference to this early literature, the present invention maintains a concentration dependent measure of protein stability relative to urea concentration. […] See, FIG. 16A. […] See, FIG. 16B.
See, FIG. 17A. In one embodiment, the present invention contemplates a multi-component single buffer mixture characterized by: i) a low delta specific heat (CP); ii) low buffer-buffer interactions; iii) low divalent cation chelation; and iv) buffering capacity over a wide pH range. In one embodiment, the multi-component single buffer mixture comprises MES and BTP. See, FIG. 17B. […] The optimal pH for Dwarf27 protein was determined by other methods to be pH 7.5 (data not shown).
Data was collected using a Spyro Orange fluorophore.
The integrated analysis compared the differences in inflection points of these protein melting temperature point screens to identify Dwarf27 protein melting point profiles. See, FIG. 19.

[3] = system: protein sample; test: Protein stability screen: protein melting point temperature in MES/BTP buffer mixture; assay type: physicochemical
Description: In one embodiment, the present invention contemplates a method comprising a physiologic buffer mixture having a temperature-stable pKa to identify test compounds that increase stability of a sample protein by performing a protein melting point temperature screen. […] Although it is not necessary to understand the mechanism of an invention it is believed that a protein stability screen acts to define the bulk properties of a solution system (i.e. impact of pH, ionic strength, buffer etc.) and not just one specific component like most of the other screening conditions. The buffer system also acts as an internal control that simultaneously compares new and old conditions under identical conditions. Although commonly used previously, a urea stability test provides validation and verification of all testing parameters by comparative analysis with historical literature. DMSO screening allows for the nomination of conditions where protein compounds are usually insoluble (e.g., for example, drug binding studies) to identify the proper use of DMSO to solubilize these compounds without effecting the performance of the intended assay.
See, FIG. 1. […] See, FIG. 3. […] See, FIG. 4. […] See, FIG. 5. […] See, FIG. 6.
A metal ion screen was performed that compared the relative effects of five (5) different metal chloride ions, each at two different concentrations. See, FIG. 7. […] See, FIG. 8.
In one embodiment, the kit instructions comprise the following steps: • i) pre-chill the RT-PCR plate at 4° C. for 15-30 minutes prior to the addition of reagents and/or protein sample to each of the wells. • ii) The dye vial and kit plates should be stored at −20° C. and away from light until the time of use. • iii) Add 5 μl of dye to 500 μl of protein sample. The dye to protein ratio can be modified to any particular protein. For example, smaller proteins or proteins with a small hydrophobic core may require an increased dye concentration. • iv) Transfer 5 μl of each solution from the well plate to a corresponding well of the RT-PCR plate. • v) Add 5 μl of the protein/dye mixture to each well of the RT-PCR plate (>0.5 mg/ml). • vi) Mix the solutions by pipetting up and down (˜5 times). • a) gently placing all solutions at the bottom of the avoids subsequent plate centrifugation. • vii) Seal the RT-PCR plate. • viii) Immediately load the TR-PCR plate into the instrument and begin the programmed heating schedule (approximate timeframe=62 minutes), for example: • a) Heat to 20 C • b) Ramp to 90 C in 0.5 C increments. • c) Ramp to 4 C with a two minute schedule. • ix) Upload stored data file to a designated website (e.g., for example, caymanchem.com/deltatm) and follow the instructions.

[4] = Kipp et al., cited from earlier work; for ΔpH=pH(60° C.)−pH(25° C.): 0.1 M, initial pH=7 (25° C.), PHTEMP simulation
[5] = system: protein sample; test: Cryoprotection protein melting point temperature screen; assay type: physicochemical
Description: For example, a protein melting point temperature screen was performed using sucrose at several different concentrations. […] See, FIG. 10. […] See, FIG. 11. […] See, FIG. 12.
Conversely, the present method can also identify compounds that might not be expected to provide quality cryoprotectant effects. For example, glycerol is widely accepted to provide cryoprotection. […] See, FIG. 13. […] This is opposite to what one would expect for an indicative parameter to identify a quality cryoprotectant. […] Although it is not necessary to understand the mechanism of an invention, it is believed that the use of such an improved cryoprotectant improves stability for nearly two years. […] See, FIG. 14.

[6] = Hoefmeister Series screen, higher Tm
[7] = cryoprotection screen, dose response

OCC(CO)(CO)NCCCNC(CO)(CO)CO [Bis Tris Propane]
effect of buffer on TH stability [1]: no significant effect on stability

C[S+](C)[O-] [DMSO, dimethyl sulfoxide]
concentration for customized buffer system for Dwarf27 [2]: 7%
effect on protein melting point temperature ([3]; buffer mixture of MES and BTP, concentration screen): consistently increased protein melting point temperatures

O=S(=O)(O)CCN1CCN(CCO)CC1 [HEPES, 4-(2-hydroxyethyl)-1-piperazine ethanesulfonic acid]
effect of buffer on TH stability [1]: no significant effect on stability

O=S(=O)(O)CCCN1CCOCC1 [MOPS, 3-(N-morpholino)propanesulfonic acid]
effect of buffer on TH stability [1]: no significant effect on stability

O=S(=O)(O)CCN1CCN(CCS(=O)(=O)O)CC1 [PIPES, piperazine-N,N′-bis(2-ethanesulfonic acid]
concentration for customized buffer system for Dwarf27 [2]: 100 mM

CC(=O)O [acetic acid]
ΔpH=pH(60° C.)−pH(25° C.) [4]: approximately 0
ΔH zero (enthalpy of acid dissociation) [4]: -0.42 kJ/mol

Cl.N [ammonium chloride]
effect on protein stability (Tm) [3, 6]: improved the stability of the protein

N.N.O=S(=O)(O)O [ammonium sulphate]
effect on protein Tm as compared to the control Tm [2]: concentration-dependent increase in protein Tm

O.O.[Ca+2].[Cl-].[Cl-] [calcium chloride dihydrate]
effect on protein stability (Tm) [3]: improved the stability of the protein

[Cl][Co][Cl] [cobalt chloride]
concentration for customized buffer system for Dwarf27 [2]: 0.005 to 0.025 mM

OCCO [ethylene glycol]
effect on protein melting point temperature [5, 7]: dose-dependent decrease in protein melting point temperatures

N[C@@H](CCC(=O)O)C(=O)O [glutamic acid]
concentration for customized buffer system for Dwarf27 [2]: 25 mM

OCC(O)CO [glycerol]
concentration for customized buffer system for Dwarf27 [2]: 2.5%
effect on TH melting temperature [1]: increased melting temperature
effect on protein melting point temperature ([3]; MES/BTP, glycerol concentrations above 10%): raised the protein melting temperature
effect on protein melting point temperature ([3]; MES/BTP, glycerol concentrations below 10%): lowered the protein melting point temperature
effect on protein melting point temperature [5, 7]: dose-dependent decrease in protein melting point temperature

Cl.N=C(N)N [guanidinium hydrochloride]
effect on protein stability (Tm) [3, 6]: improved the stability of the protein

[Cl-].[Li+] [lithium chloride]
effect on protein stability (Tm) [3, 6]: improved the stability of the protein

[Cl-].[K+] [potassium chloride]
effect on protein stability (Tm) [3, 6]: improved the stability of the protein

CC(=O)[O-].O.O.O.[Na+] [sodium acetate trihydrate]
effect on protein stability (Tm) [3]: improved the stability of the protein

O=C([O-])CC(O)(CC(=O)[O-])C(=O)[O-].[Na+].[Na+].[Na+] [sodium citrate tribasic]
effect on protein stability (Tm) [3]: improved the stability of the protein

[F-].[Na+] [sodium fluoride]
effect on protein stability (Tm) [3, 6]: improved the stability of the protein

[I-].[Na+] [sodium iodide]
effect on protein stability (Tm) [3, 6]: improved the stability of the protein

O=[N+]([O-])[O-].[Na+] [sodium nitrate]
effect on protein stability (Tm) [3, 6]: improved the stability of the protein

O=P([O-])([O-])O.[Na+].[Na+] [sodium phosphate dibasic]
concentration for customized buffer system for Dwarf27 [2]: 50 mM
effect on protein stability (Tm) [3, 6]: improved the stability of the protein

O.O.O.O.O.O.O.O.O.O.O=S(=O)([O-])[O-].[Na+].[Na+] [sodium sulphate decahydrate]
effect on protein stability (Tm) [3]: improved the stability of the protein

O=C([O-])C(O)C(O)C(=O)[O-].[Na+].[Na+] (stereo not drawn) [sodium tartrate dibasic]
effect on protein stability (Tm) [3, 6]: improved the stability of the protein

N#C[S-].[Na+] [sodium thiocynate]
effect on protein stability (Tm) [3, 6]: improved the stability of the protein

OC[C@@H](O)[C@@H](O)[C@H](O)[C@@H](O)CO [sorbitol]
effect on TH melting temperature [1]: increased melting temperature

OC[C@H]1O[C@@](CO)(O[C@H]2O[C@H](CO)[C@@H](O)[C@H](O)[C@H]2O)[C@@H](O)[C@@H]1O [sucrose]
effect on TH melting temperature [1]: increased melting temperature
effect on protein melting point temperature ([5]; 25% sucrose and 30% sucrose): raised the melting point temperature

O=S(=O)(O)O [sulfuric acid]
ΔpH=pH(60° C.)−pH(25° C.) [4]: approximately −0.4
ΔH zero 1 [4]: -50.2 kJ/mol
ΔH zero 2 [4]: -22.6 kJ/mol

OC[C@H]1O[C@H](O[C@H]2O[C@H](CO)[C@@H](O)[C@H](O)[C@H]2O)[C@H](O)[C@@H](O)[C@@H]1O [trehalose]
increase in protein melting temperature relative to sucrose ([5]; cryoprotection screen): more pronounced than sucrose

CCN(CC)CC [triethylamine]
ΔpH=pH(60° C.)−pH(25° C.) [4]: approximately −0.8
ΔH zero (enthalpy of acid dissociation) [4]: 43.5 kJ/mol

NC(N)=O [urea]
effect on protein Tm as compared to the control Tm [2]: generalized decreases in protein Tm
effect on protein ([3]; MES/BTP, urea concentrations in excess of 1.75 M, no melting point determinable): complete protein denaturation
effect on protein melting point temperature ([3]; MES/BTP, urea under 0.5 M or between 0.75-1.75 M): lower protein melting point temperatures

OC[C@@H](O)[C@H](O)[C@@H](O)CO [xylitol]
effect on protein melting temperature in comparison to sucrose or trehalose ([5]; e.g. 30%): raised the protein melting temperature a full degree

From patent US11001872B2, “Designing customized protein-specific buffer system” (priority 2015, dated 2021)
